Measured values published in patent EP1038870A1, “3,3-bis(aryl)-5-((N-(un)substituted)amido)naphthopyrans, their preparation, compositions and (co)polymer matrices containing them” (Corning S.A., priority 1999, dated 2000).

Assay: Photochromic properties of lens samples (2 mm, compound in the mass of cross-linked matrix I or II) exposed to UV radiation from a xenon lamp
Assay type: physicochemical
Conditions: lens sample
Description: The matrix used in accordance with the present invention may be one of two types:
A homopolymer of the monomer DIACRYL 121 (D121 : tetraethoxylated Bisphenol A dimethylmethacrylate), marketed by Akzo Nobel; or
A copolymer comprised of a 50/50 mixture by weight of D121 (as above) and polyethylene glycol dimethacrylate (Molecular weight = 400) (PEGDMA 400).
10^-5 moles of at least one compound of the invention, together with 0.2% by weight of AMBN (2,2'-azobis(2-methylbutyronitrile)) provided by Akzo, are added to 10 g of formulations able to generate cross-linked matrix I or II. The formulations thus prepared are then poured into a lens mould of 2 mm thickness and then cured by heating at 60°C for 6 hours, followed by heating at 80°C for 2 hours to give a lens sample. The photochromic properties of the lens samples thus obtained were then evaluated as follows : Said lens sample, containing said photochromic compounds in its mass, is exposed to a UV radiation (source: xenon lamp).

[1] = Matrix I (homopolymer of DIACRYL 121)
[2] = Matrix II (50/50 D121 / PEGDMA 400 copolymer)

| SMILES | OID : optical induced density (D∞-D0) [1] | T0 : the transmission before exposure to UV [1] | λmax: the maximum absorption in the visible spectrum after UV irradiation [1] | OID : optical induced density (D∞-D0) [2] | T0 : the transmission before exposure to UV [2] | λmax: the maximum absorption in the visible spectrum after UV irradiation [2] | TD15: the transmission after 15 minutes' exposure to UV [1] | TD15: the transmission after 15 minutes' exposure to UV [2] |
| --- | --- | --- | --- | --- | --- | --- | --- | --- |
| C1=CC(c2ccccc2)(c2ccccc2)Oc2ccc3ccccc3c21 [Control, 3,3-bisphenyl-3H-naphtho[2,1-b]pyran, reference compound] | – | – | – | 0.280 | 88% | 436 nm | – | 44% |
| COc1ccc(C2(c3ccc(OC)cc3OC)C=Cc3c(c(C(=O)N4CCc5ccccc54)cc4ccccc34)O2)c(OC)c1 [Example 5, 3,3-bis(2,4-dimethoxyphenyl)-5-indolinocarbonyl--3H-naphtho[2,1-b]pyran] | 1.063 | 85.6% | 514 nm | 1.634 | 84.0% | 514 nm | 7.4% | 2.0% |
| Cc1ccc(NC(=O)c2cc3ccccc3c3c2OC(c2ccccc2)(c2ccccc2)C=C3)cc1 [Example 1, 3,3-diphenyl-5-p-tolylcarbamoyl-3H-naphtho[2,1-b]pyran] | 0.315 | 87.9% | 477 nm | – | – | – | 42.6% | – |
| CN(C)c1ccc(C2(c3ccc(N(C)C)c4ccccc34)C=Cc3c(c(C(=O)N4CCOCC4)cc4ccccc34)O2)cc1 (stereo not drawn) [Example 4, 3-(4-dimethylaminophenyl)-3-(4-dimethylaminonapthyl)-5-morpholinocarbonyl-3H-naphtho[2,1-b]pyran] | 0.325 | 65.0% | 556 nm | – | – | – | 30.8% | – |

Now from value to molecule, other results behind:

| OID : optical induced density (D∞-D0) [1] | T0 : the transmission before exposure to UV [1] | λmax: the maximum absorption in the visible spectrum after UV irradiation [1] | OID : optical induced density (D∞-D0) [2] | T0 : the transmission before exposure to UV [2] | λmax: the maximum absorption in the visible spectrum after UV irradiation [2] | SMILES | TD15: the transmission after 15 minutes' exposure to UV [1] | TD15: the transmission after 15 minutes' exposure to UV [2] |
| --- | --- | --- | --- | --- | --- | --- | --- | --- |
| 1.931 | 85.4% | 510 nm | 2.146 | 84.0% | – | COc1ccc(C2(c3ccc(OC)cc3OC)C=Cc3c(c(C(=O)N4CCOCC4)cc4ccccc34)O2)cc1 (stereo not drawn) [Example 6, 3-(2,4-dimethoxyphenyl)-3-(4-methoxyphenyl)-5-morpholinocarbonyl-3H-naphtho[2,1-b]pyran] | 1.0% | 0.6% |
| – | – | – | 0.765 | 89.0% | 504 nm | COc1ccc(C2(c3ccc(OC)cc3OC)C=Cc3c(c(C(=O)N4CCCCC4)cc4ccccc34)O2)c(OC)c1 [Example 9, 3,3-bis(2,4-dimethoxyphenyl)-5-piperidinocarbonyl-3H-naphtho[2,1-b]pyran] | – | 15.3% |
| 0.746 | 88.0% | 512 nm | 0.805 | 88.1% | 512 nm | COc1ccc(C2(c3ccc(OC)c(OC)c3)C=Cc3c(c(C(=O)N4CCOCC4)cc4ccccc34)O2)c(OC)c1 (stereo not drawn) [Example 7, 3-(2,4-dimethoxyphenyl)-3-(3,4-dimethoxyphenyl)-5-morpholinocarbonyl-3H-naphtho[2,1-b]pyran] | 15.8% | 13.8% |
| 1.303 | 85.7% | 514 nm | – | – | – | COc1ccc(C2(c3ccc(OC)cc3OC)C=Cc3c(c(C(=O)N4CCOCC4)cc4ccccc34)O2)c(OC)c1 [Example 2, 3,3-bis(2,4-dimethoxyphenyl)-5-morpholinocarbonyl-3H-naphtho[2,1-b]pyran] | 4.3% | – |
| 0.637 | 85.4% | 570 nm | 0.769 | 85.8% | 570 nm | COc1ccc(C2(c3ccc(N4CCCCC4)cc3)C=Cc3c(c(C(=O)N4CCCCC4)cc4ccccc34)O2)c(OC)c1 (stereo not drawn) [Example 8, 3-(2,4-dimethoxyphenyl)-3-(p-N-piperidinophenyl)-5-piperidinocarbonyl-3H-naphtho[2,1-b]pyran] | 19.7% | 14.6% |
